What all share (assay type): in vivo, human
The subject of experiment [1] is subjects with a diagnosis of MDD. As to the kind of experiment: HDRS17 / HAM-D6 depression ratings, diphenhydramine and placebo-controlled study (Example 2). As to conditions: Day 11. The source says: (§1) Men and women with a diagnosis of MDD between the ages of 18 and 64, inclusive, were enrolled.
(§2) (once daily) in the evening over 10 days for women of child bearing potential (WOCBP) or 4 weeks for males and women of non-child bearing potential (WONCBP). […] Males and WONCBP took 1 capsule every evening just before bedtime from Day 1 to Day 28. WOCBP took 1 capsule every evening just before bedtime from Day 1 to Day 10. There were 2 follow up visits occurring at 3 and 14 days.
(§3) For the evaluation of symptoms of depression, assessments were done at screening and during the study. Specifically, symptoms of depression were performed using the Mini International Neuropsychiatric Interview (MINI) 6.0 interview, or Hamilton rating scale for Depression-17 (HDRS17). Also, polysomnography (PSG) was performed to quantify sleep stages including latency to persistent sleep (LSP) and total sleep time (TST). Thereafter, symptoms of depression were taking on days 11 and 29 during treatment and days 3 and 14 following treatment. PSG was recorded overnight after the first and tenth dose administration of study medication.
A HDRS17 total score was calculated by summing the 17 item scores taken during the study. A HDRS17 total score ranges from 0 to 52, with higher scores indicating greater severity of depression. In order to correct for a possible effect of study medication on sleep, sleep-related items were removed from the HDRS17 to calculate a (sleep item)-adjusted HDRS. Accordingly, an adjusted HDRS17 total score was calculated by summing the item scores excluding the 3 insomnia questions (4-Insomnia Early, 5-Insomnia Middle and 6-Insomnia Late). A HDRS17 adjusted total score ranges from 0 to 46. A 6-item subscale from the HDRS17 (HAM-D6) was analyzed and provided information to core depressive symptoms and is sensitive to treatment response. The six items included depressed mood, guilt feelings, work and interests, psychomotor retardation, psychic anxiety, and general somatics (tiredness and pains).
The HAM-D6 score was calculated by summing the 6 items scores, and ranges from 0 to 22. Higher scores indicate greater severity of core symptoms.

Experiment [2] shares this test system. The experiment can be described thus: Polysomnography (TST, LPS) in MDD study (Example 2).
Text: as §1, §2, §3
The effects of study medication on polysomnography (PSG)-derived parameters was evaluated overnight on Days 1/2 and 10/11. In addition, PSG was recorded up to and following a forced wake overnight on Day 5/6. Two screening PSG recordings were made and baseline values were calculated as the average values recorded at Screening 1 and 2.
TST is defined as total minutes spent in rapid eye movement (REM) and non-REM sleep.
LPS is defined as the elapsed time (in minutes) from lights out to 10 minutes of continuous sleep.

The test system of experiment [3] is subjects diagnosed with MDD. The experiment can be described thus: HDRS17 / HAM-D6 ratings, Group 1 monotherapy (Example 3). As to conditions: Group 1, Day 11. Here is the method: (§4) Specifically, Compound A was administered to subjects diagnosed with MDD (i) as a monotherapy and (ii) in combination with a known anti-depressant and the symptoms of depression of the subjects evaluated using the HDRS17 and HAM-D6 scale
(§5) Each subject in Group 2 also took an amount of antidepressant selected from duloxetine, citalopram, paroxetine, or sertraline and as prescribed by their attending physician. For the evaluation of symptoms of depression for both groups, assessments were independently performed at screening and on Day 11, i.e., one day after the study, using HDRS17 and HAM-D6 as described in Example 2. In Tables 11-12, # denotes the Cohen effect size, * denotes P<0.05 (statistically significant), and ** denotes P<0.01.

For experiment [4], the system named is subjects diagnosed with MDD. As to the kind of experiment: HDRS17 / HAM-D6 ratings, Group 2 adjunctive to antidepressant (Example 3). As to conditions: Group 2 (with antidepressant), Day 11. The protocol:
as §4, §5

For the compound `CN(C)CCOC(c1ccccc1)c1ccccc1` [Diphenhydramine, diphenhydramine, reference compound], in experiment [1], the “Mean HAM-D6, change from baseline” value is listed as −1.8 and the “mean HDRS17 anxiety/somatization factor score, change from baseline” value was −0.9. In experiment [1] (q.d. in the evening), the “Mean Adjusted HDRS17 (sleep items removed), change from baseline” value is −2.3 and the “Total HDRS17 mean score, change from baseline” value is reported as −4.1. In experiment [2] (Day 1/2), the “Latency to Persistent Sleep (LPS), change from baseline” value amounted to 6.7 min and the “Total Sleep Time (TST), change from baseline” value came out at 28.3 min. Besides, in experiment [2] (Day 10/11), the “Latency to Persistent Sleep (LPS), change from baseline” value worked out at 0.3 min and the “Total Sleep Time (TST), change from baseline” value amounted to 33.92 min. For the same compound, in experiment [2] (overnight on Day 1/2), the “LPS compared to placebo” value was “modestly reduced LPS” and the “TST compared to placebo” value is on record as “increased TST”. Moreover, in experiment [3], the “Adjusted HDRS mean score (SD), change from baseline” value is recorded as −2.1 (3.02); the “Anxiety-Somatization Factor mean score (SD), change from baseline” value is reported as −0.8 (1.17); the “HAM-D6 mean score (SD), change from baseline” value was −1.7 (2.15); the “HDRS17 mean score (SD), change from baseline” value is on record as −4.2 (4.00). In experiment [4], the “Adjusted HDRS mean score (SD), change from baseline” value is reported as −3.5 (0.71); the “Anxiety-Somatization Factor mean score (SD), change from baseline” value was −1.5 (0.71); the “HAM-D6 mean score (SD), change from baseline” value was −2.0 (1.41); the “HDRS17 mean score (SD), change from baseline” value was −3.5 (0.71).
